US6737383B1, “Herbicidal oxadiazolidines” (priority 1999, dated 2004)

Tests used:
[1] = tested on: crabgrass; test: Test B pre/postemergence crabgrass; assay type: in vivo, Digitaria sanguinalis
Method in brief: (§1)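 Herbicidal effect was estimated by eye on a ten-point control scale after plants spent twelve to sixteen days in a greenhouse following soil or foliar treatment. Foliar sprays targeted plants at one to four leaves; all doses were formulated in a non-phytotoxic solvent with surfactant.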

[2] = tested on: purple nutsedge; test: Test B pre/postemergence purple nutsedge; assay type: in vivo, Cyperus rotundus
Method in brief: as §1

[3] = tested on: duck salad; test: Test B flood test duck salad; assay type: in vivo, Heteranthera limosa
Method in brief: (§2)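 Each value is a visual injury score relative to controls, with 10 meaning complete control and 0 no effect. Evaluation took place twelve to sixteen days after the 2-leaf-stage plants were treated and kept in the greenhouse.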

[4] = tested on: bamyardgrass; test: Test B flood test barnyardgrass; assay type: in vivo, Echinochloa crus-galli
Method in brief: as §2

[5] = tested on: winter wheat; test: Test E winter wheat; assay type: in vivo, Triticum aestivum; settings: Postemergence; for Plant response rating, Wheat (winter): 0 to 100 scale, 0 is no effect, 100 is complete control; for Wheat (winter) plant response rating: Rate 250 g/ha, 0 to 100 scale where 0 is no effect and 100 is complete control
Method in brief: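 Greenhouse-grown plants are treated (postemergence: 1- to 4-leaf stage, sandy loam/potting mix 60:40), then evaluated visually versus untreated controls some 21 to 28 days later.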

[6] = tested on: blackgrass; test: Test E blackgrass; assay type: in vivo, Alopecurus myosuroides; settings: Preemergence; for Blackgrass plant response rating (0 to 100 scale): Rate 250 g/ha
[7] = tested on: green foxtail; test: Test E green foxtail; assay type: in vivo, Setaria viridis; settings: Preemergence; for Green foxtail plant response rating (0 to 100 scale): Rate 250 g/ha
[8] = tested on: Italian ryegrass; test: Test E Italian ryegrass; assay type: in vivo, Lolium multiflorum; settings: Preemergence; for I. Ryegrass plant response rating (0 to 100 scale): Rate 250 g/ha
[9] = tested on: winter wheat; test: Test E winter wheat; assay type: in vivo, Triticum aestivum; settings: Preemergence; for Wheat (winter) plant response rating (0 to 100 scale): Rate 250 g/ha
[10] = tested on: wild oat; test: Test E wild oat; assay type: in vivo, Avena fatua; settings: Preemergence; for Wild oat plant response rating (0 to 100 scale): Rate 250 g/ha
[11] = tested on: winter barley; test: Test E winter barley; assay type: in vivo, Hordeum vulgare; settings: Preemergence; for Barley (winter) plant response rating (0 to 100 scale): Rate 250 g/ha
[12] = Preemergence, Rate 62 g/ha, scale of 0 to 10 where 0 is no effect and 10 is complete control
[13] = Preemergence, Rate 250 g/ha, scale of 0 to 10 where 0 is no effect and 10 is complete control
[14] = Preemergence, Rate 500 g/ha, scale of 0 to 10 where 0 is no effect and 10 is complete control
[15] = Rate 62 g/ha, Postemergence, scale of 0 to 10 where 0 is no effect and 10 is complete control
[16] = Rate 125 g/ha, Postemergence, scale 0 to 10
[17] = Rate 125 g/ha, Preemergence, scale of 0 to 10 where 0 is no effect and 10 is complete control
[18] = Rate 500 g/ha, Postemergence, scale 0 to 10
[19] = Rate 62 g/ha, headed Pre-emergence (flood test species), scale 0 to 10 (0 no effect, 10 complete control)
[20] = Rate 125 g/ha, Pre-emergence, flood test species, scale 0 to 10 where 0 is no effect and 10 is complete control
[21] = Rate 250 g/ha, Pre-emergence, flood-test species, scale 0 to 10, 0 is no effect, 10 is complete control
[22] = Rate 500 g/ha, Pre-emergence, flood test species, scale 0 to 10 (0 no effect, 10 complete control)
[23] = Rate 125 g/ha, 0 to 100 scale (0 no effect, 100 complete control)
[24] = Rate 500 g/ha, 0 to 100 scale where 0 is no effect and 100 is complete control
[25] = Rate 500 g/ha, Postemergence, scale 0 to 10, 0 no effect, 10 complete control

In the case of `CC(C)N(C(=O)n1oc(=O)n(CCC(F)=C(F)F)c1=O)c1ccc(F)cc1` [Compound 218], the “Crabgrass plant response rating” value [1, 12] is reported as 4, the “Crabgrass plant response rating” value [1, 13] is reported as 6 and the “Plant response rating, Crabgrass” value [1, 14] is reported as 7. For the same compound, the “Crabgrass plant response rating” value [1, 15] was 1, the “Crabgrass plant response rating” value [1, 16] was 4 and the “Crabgrass plant response rating” value [1, 17] was 4. For the same compound, the “Plant response rating (0 to 10; 0 is no effect, 10 is complete control), Crabgrass” value ([1]; Rate 250 g/ha, Postemergence) was 5, the “Crabgrass plant response rating” value [1, 18] was 9 and the “Plant response rating, Nutsedge” value [2, 14] was 0. The “Nutsedge plant response rating” value [2, 15] was 0, the “Nutsedge plant response rating” value [2, 16] was 0 and the “Plant response rating (0 to 10; 0 is no effect, 10 is complete control), Nutsedge” value ([2]; Rate 250 g/ha, Postemergence) was 0. For the same compound, the “Nutsedge plant response rating” value [2, 18] was 0, the “Ducksalad plant response rating” value [3, 19] was 0 and the “Ducksalad plant response rating” value [3, 20] was 0. For the same compound, the “Ducksalad plant response rating” value [3, 21] was 0, the “Ducksalad plant response rating” value [3, 22] was 0 and the “Barnyardgrass plant response rating” value [4, 19] was 0. For the same compound, the “Barnyardgrass plant response rating” value [4, 20] was 0, the “Barnyardgrass plant response rating” value [4, 21] was 0 and the “Barnyardgrass plant response rating” value [4, 22] was 0. The “Plant response rating, Wheat (winter)” value ([5]; Rate 125 g/ha) was 65, the “Wheat (winter) plant response rating” value [5] was 70 and the “Plant response rating, Wheat (winter)” value ([5]; Rate 500 g/ha) was 85. For the same compound, the “Plant response rating, Blackgrass” value [6, 23] was 65, the “Blackgrass plant response rating (0 to 100 scale)” value [6] was 70 and the “Plant response rating, Blackgrass” value [6, 24] was 100. The “Plant response rating, Green foxtail” value [7, 23] was 30, the “Green foxtail plant response rating (0 to 100 scale)” value [7] was 55 and the “Plant response rating, Green foxtail” value [7, 24] was 85. The “Plant response rating, I. Ryegrass” value [8, 23] was 55, the “I. Ryegrass plant response rating (0 to 100 scale)” value [8] was 60 and the “Plant response rating, I. Ryegrass” value [8, 24] was 70. The “Plant response rating, Wheat (winter)” value [9, 23] was 50, the “Wheat (winter) plant response rating (0 to 100 scale)” value [9] was 40 and the “Plant response rating, Wheat (winter)” value [9, 24] was 50. For the same compound, the “Plant response rating, Wild oat” value [10, 23] was 70, the “Wild oat plant response rating (0 to 100 scale)” value [10] was 65 and the “Plant response rating, Wild oat” value [10, 24] was 70. For the same compound, the “Plant response rating, Barley (winter)” value [11, 23] was 40, the “Barley (winter) plant response rating (0 to 100 scale)” value [11] was 50 and the “Plant response rating, Barley (winter)” value [11, 24] was 65.
For `CC(C)N(C(=O)n1oc(=O)n(C2CC2)c1=O)c1ccc(Cl)cc1` [Compound 241], the “Crabgrass plant response rating” value [1, 12] was 3, the “Crabgrass plant response rating” value [1, 13] was 10 and the “Plant response rating, Crabgrass” value [1, 14] was 10. For the same compound, the “Crabgrass plant response rating” value [1, 15] was 2, the “Crabgrass plant response rating” value [1, 17] was 7 and the “Plant response rating (0 to 10; 0 is no effect, 10 is complete control), Crabgrass” value ([1]; Rate 250 g/ha, Postemergence) was 8. For the same compound, the “Crabgrass plant response rating” value [1, 25] was 9, the “Nutsedge plant response rating” value [2, 13] was 10 and the “Plant response rating, Nutsedge” value [2, 14] was 10. The “Nutsedge plant response rating” value [2, 15] was 0, the “Nutsedge plant response rating” value [2, 17] was 0 and the “Plant response rating (0 to 10; 0 is no effect, 10 is complete control), Nutsedge” value ([2]; Rate 250 g/ha, Postemergence) was 0. The “Nutsedge plant response rating” value [2, 25] was 6, the “Ducksalad plant response rating” value [3, 19] was 0 and the “Ducksalad plant response rating” value [3, 20] was 0. The “Ducksalad plant response rating” value [3, 21] was 0, the “Ducksalad plant response rating” value [3, 22] was 0 and the “Barnyardgrass plant response rating” value [4, 19] was 0. For the same compound, the “Barnyardgrass plant response rating” value [4, 20] was 0, the “Barnyardgrass plant response rating” value [4, 21] was 0 and the “Barnyardgrass plant response rating” value [4, 22] was 0. The “Plant response rating, Wheat (winter)” value ([5]; Rate 125 g/ha) was 20, the “Wheat (winter) plant response rating” value [5] was 60 and the “Plant response rating, Wheat (winter)” value ([5]; Rate 500 g/ha) was 50. The “Plant response rating, Blackgrass” value [6, 23] was 60, the “Blackgrass plant response rating (0 to 100 scale)” value [6] was 100 and the “Plant response rating, Blackgrass” value [6, 24] was 98. For the same compound, the “Plant response rating, Green foxtail” value [7, 23] was 65, the “Green foxtail plant response rating (0 to 100 scale)” value [7] was 90 and the “Plant response rating, Green foxtail” value [7, 24] was 90. The “Plant response rating, I. Ryegrass” value [8, 23] was 60, the “I. Ryegrass plant response rating (0 to 100 scale)” value [8] was 70 and the “Plant response rating, I. Ryegrass” value [8, 24] was 100. The “Plant response rating, Wheat (winter)” value [9, 23] was 40, the “Wheat (winter) plant response rating (0 to 100 scale)” value [9] was 50 and the “Plant response rating, Wheat (winter)” value [9, 24] was 60. For the same compound, the “Plant response rating, Wild oat” value [10, 23] was 50, the “Wild oat plant response rating (0 to 100 scale)” value [10] was 60 and the “Plant response rating, Wild oat” value [10, 24] was 55. For the same compound, the “Plant response rating, Barley (winter)” value [11, 23] was 40, the “Barley (winter) plant response rating (0 to 100 scale)” value [11] was 50 and the “Plant response rating, Barley (winter)” value [11, 24] was 60.
